Publication PMC2710136 (Biochemistry, 2009)
Ends that are not written are not given here.

What was measured:
Settings in all cases: SD
cSH3 domain of Grb2 = cSH3 domain of Grb2 (Homo sapiens, UniProt P62993); assay: ITC binding of Sos1 peptides to wildtype cSH3 domain of Grb2
nSH3 domain of Grb2 = nSH3 domain of Grb2 (Homo sapiens, UniProt P62993); assay: ITC binding of Sos1 peptides to wildtype nSH3 domain of Grb2
[1] = target: nSH3_D33A mutant domain of Grb2 (Homo sapiens, UniProt P62993, D33A); assay: ITC binding of Sos1 peptides to nSH3_D33A mutant domain
Chain of nSH3_D33A mutant domain of Grb2 (P62993 1-58 D33A limits assumed): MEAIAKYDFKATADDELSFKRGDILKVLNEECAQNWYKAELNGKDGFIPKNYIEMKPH

[2] = target: cSH3_D187A mutant domain of Grb2 (Homo sapiens, UniProt P62993, D187A); assay: ITC binding of Sos1 peptides to cSH3_D187A mutant domain
Chain of cSH3_D187A mutant domain of Grb2 (P62993 156-215 D187A limits assumed): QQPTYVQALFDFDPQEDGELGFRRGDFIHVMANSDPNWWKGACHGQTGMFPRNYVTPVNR

[3] = target: cSH3_D190A mutant domain of Grb2 (Homo sapiens, UniProt P62993, D190A); assay: ITC binding of Sos1 peptides to cSH3_D190A mutant domain
Chain of cSH3_D190A mutant domain of Grb2 (P62993 156-215 D190A limits assumed): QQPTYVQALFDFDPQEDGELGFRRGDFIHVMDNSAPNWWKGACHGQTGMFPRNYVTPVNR

[4] = target: nSH3_E31A mutant domain of Grb2 (Homo sapiens, UniProt P62993, E31A); assay: ITC binding of Sos1 peptides to nSH3_E31A mutant domain
Chain of nSH3_E31A mutant domain of Grb2 (P62993 1-58 E31A limits assumed): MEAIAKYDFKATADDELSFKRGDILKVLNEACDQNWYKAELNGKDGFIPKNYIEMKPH

Chain of nSH3 domain of Grb2 (P62993 1-58 limits assumed): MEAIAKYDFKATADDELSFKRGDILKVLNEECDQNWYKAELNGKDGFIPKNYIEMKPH
Chain of cSH3 domain of Grb2 (P62993 156-215 limits assumed): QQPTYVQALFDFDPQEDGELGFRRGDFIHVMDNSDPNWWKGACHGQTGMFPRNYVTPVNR

Sequence	Kd (cSH3 domain of Grb2) [µM]	Kd (nSH3 domain of Grb2) [µM]	Kd [1] [µM]	Kd [2] [µM]	Kd [3] [µM]	Kd [4] [µM]
DSPPAIPPRQPT [Peptide S2]	1400 ± 87	56 ± 5				
ESPPLLPPREPV [Peptide S3]	1720 ± 33	117 ± 2				
IAGPPVPPRQST [Peptide S4]	1320 ± 44	82 ± 1				
PVPPPVPPAAAP [Peptide S1_AAA]	3090 ± 121	2560 ± 335				
PVPPPVPPARRP [S1_R+5A]	962 ± 26	490 ± 20				
PVPPPVPPRAAP [Peptide S1_AA]	1570 ± 27	84 ± 1				
PVPPPVPPRARP [S1_R+6A]	331 ± 2	53 ± 1	137 ± 7.6	544 ± 102	910 ± 57	67 ± 0.3
PVPPPVPPRRAP [S1_R+7A]	318 ± 23	72 ± 1	169 ± 4.5	2390 ± 73	482 ± 47	91 ± 1.2
